In US20130040291A1, “Detection and Quantification of Cellular Stress Response Resolution Pathway Expression and Functionality and the Effects of Agents or Conditions Thereupon” (priority 2011, published 2013):

Tested on: CDNR4 cells
Assay type: cell-based, murine
Protocol: Following the cessation of the calibrated stress conditions exposure, the SR assay raw data is collected in the form of positive and negative wells (or cell growth sites) and in the form of viable or dead cell clones. The next steps of the assay involve expanding viable clones and determining their phenotypes. When the phenotype of interest being investigated in the SR assay is cell survival, the clones can be sub-classified using the testing listed in Table 6. This testing is performed as follows. Clones are removed from the tissue culture vessels in which they were placed before the start of the calibrated stress conditions exposure (using methods appropriate for the cell type), and subdivided into 4 different aliquots. Each aliquot is re-plated in an appropriate tissue culture vessel in medium containing the following. For one aliquot, the medium is growth medium (conditioned medium may be used) only; for a second aliquot the medium is supplemented with guanosine or folic acid at a concentration sufficient to enhance the survival and expansion of HPRT^− clones; for a third aliquot, the medium contains the same level of agent as used for the calibrated stress condition exposure, and the fourth aliquot is placed in HAT-medium containing an amount of aminopterin that is sufficient to induce growth arrest and/or cell death in Phen-HPRT^− cells of the cell type of interest (see above). Cell morphology (where informative for cell behavior and/or gene expression) and cell growth are monitored over the next 2, to 4 days to determine the response of the cells to these differing conditions. Cell clones can be subjected to additional testing as desired to evaluate further endpoints of interest and/or can be cryopreserved for future evaluations.
To subgroup Phen-ah clones as Phen-alt-rev or Phen-alt-irr, a representative group of these clones is tested further by subjecting the clones to repeated rounds of exposure to the calibrated stress conditions. Other stress inducing agents also may be used. Each exposure cycle is followed by a period of time to allow the cells to recover, and thus, to resolve the stress environment. After each exposure round, the percentage of cells that are resistant to the stress inducing agent or condition is recorded. […] The parental cell response that has been used in the examples below is defined as greater than 99% sensitivity to the calibrated stress conditions agent or condition, as evidenced by cell cycle arrest and/or cell death following exposure to the SR induction agent. Other stress response endpoints may be used and will depend upon the nature of the stress inducing agent used; these endpoints are incorporated herein.
The murine mammary epithelial cells designated CDNR4 were grown in their preferred growth medium (42% DMEM, 42% Hams F-12, 12% FBS, 1% 100×L-glutamine, 1% pen-strep, 0.5% to 1% bovine pituitary extract) until approximately 6 million cells were available. Cells were removed from the expansion flasks, counted, and replated at a rate of 500,000 cells per […] flask in growth medium. The flasks were assigned randomly to one of two groups: a vehicle-alone exposure (control group); an ENU-exposure (treated) group. […] For group 1 flasks, a volume of growth medium equal to the volume of ENU was added to the flasks. The cells were exposed to this solution for 1 hour at 37° C.; at the end of this time the solution was removed, the cells were washed with PBS at 37° C., and the cells were re-fed with fresh growth medium.
At the end of 2 weeks, the cells were removed from the flasks with trypsin/EDTA and passed through a 20 to 25 micron pore size sterile Nytran filter. The cell suspension was evaluated by light microscopy for evidence of large clumps, and was re-filtered if necessary using a new sterile Nytran filter of the same size to remove any apparent large clumps of cells. […]

[1] = ENU 2.0 micrograms/ml 1 hour (so in the source), 2-week expression period, 6-TG stress
[2] = ENU-exposed, average 6 out of 38 clones

With `CCN(N=O)C(N)=O` [ENU, ethylnitrosourea] the “CE / mutant frequency of Phen-HPRT^− clones” value [1] was 160±40 ×10^−6, the “CE of Phen-alt-irr clones” value [1] was 690±170 ×10^−6 and the “CE of Phen-alt-rev clones” value [1] was 180±130 ×10^−6. For the same molecule, the “CE of Phen-parental clones” value [1] was 95±20 ×10^−6, the “reduction in total pro-survival pathway function, ENU-exposed versus vehicle-exposed” value (ENU 20 micrograms/ml 1 hour) was about 3 fold and the “fCEs for all surviving cell clones (total pro-survival pathway function)” value (ENU 20 micrograms/ml 1 hour, 6-TG 30 micrograms/ml 4 days, 600 cells per well) was 1210±380 ×10^−6. The “surviving population with damage, Phen-alt-rev clones included” value (ENU-exposed) was 92%, the “average CE for Phen-Hprt- and Phen-alt clones, Phen-alt-rev clones included” value (ENU-exposed cells) was 1100±350 ×10^−6 and the “combined average fCE of Phen-parental and Phen-alt-rev clones” value (ENU-exposed cells) was 280±150 ×10^−6. For the same molecule, the “average fCE for Phen-Hprt^− clones and Phen-alt clones together (damage tolerance pathway function)” value (ENU-exposed cells, without Phen-alt-rev clones) was 870±220 ×10^−6, the “effect per unit dose of the calibrated stress conditions exposure upon CEs for Phen-parental clones” value (ENU-exposed cells, 95÷35 micrograms 6-TG) was 2.7 CE/microgram 6-TG and the “post-calibrated stress condition fCEs” value (ENU-exposed cells, SRID-10% of 6-TG (Example 5)) was 95 ×10^−6. For the same molecule, the “surviving population with permanent genomic changes” value (ENU-exposed, Hprt mutations plus irreversible phenotypic alterations) was 75%, the “Phen-parental clones as share of the final surviving treated cell population” value (ENU-exposed, average 3 out of 38 clones) was 9% and the “surviving clones with evidence of DNA damage in the Hprt gene” value [2] was 15%. The “surviving clones with reversible phenotypic alterations” value [2] was 17%, the “surviving clones with irreversible phenotypic changes (Phen-alt-irr)” value (ENU-exposed, average 23 out of 38 clones) was 60% and the total survival frequency (ENU-treated cells, calibrated stress conditions at SRID-70% to 80%) was “approximately 128 ×10^−6”. The “reduction in damage avoidance pathway function, Phen-parental clones only” value (treated versus control cells) was “approximately 25 fold” and the “reduction in damage avoidance pathway function, Phen-parental and Phen-alt-rev together” value (versus Phen-parental fCE of control cells) was 12 fold.
